Results taken from publication PMC7539012, “Hyperphosphorylated tau aggregation and cytotoxicity modulators screen identified prescription drugs linked to Alzheimer's disease and cognitive functions” (Scientific Reports, 2020).
Where a name gives a salt, the structure may show the parent alone. Read-outs that look alike come from different tables or passages of the source. Where a SMILES comes first, the peptide text is derived from it. Bridges are numbered along the chain shown (N, C = ends). [ ]: non-standard residue; d: D form. The star is where a group is joined. X2 = CCC(C)C(N)C1=NC(C(=O)*)CS1; dOrn = NCCC[C@@H](N)C(=O)O

System: T1, 1N4R p-tau
T1 construct: made in house; host or cells: E. coli (PIMAX system)
Experiment: p-tau aggregation modulator screen of 1280-compound library (ThS fluorescence net change over 16 h);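 on ThS net change: 30 µM compound with 6 µM p-tau over 16 h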
Format: biochemical
Design: key to PTAI>2SD: *: PTAI>2SD; key to PTAI>3SD: *: PTAI>3SD

[1] = 1280-compound library screen, ThS fluorescence net change over 16 h
[2] = p-tau aggregation modulator screen of 1280-compound library, ThS fluorescence net change
[3] = p-tau aggregation modulator screen of the compound library, ThS fluorescence net change
[4] = library screen, ThS fluorescence net change over 16 h with p-tau
[5] = 1280-compound library screen, […]
[6] = p-tau aggregation modulator screen of 1280-compound library, […]

In the case of `Nc1ncn(C2O[C@H](CO)[C@@H](O)[C@H]2O)c(=O)n1` (some centres unmarked) [Azacytidine-5], the ThS net change [1] is reported as 405.

`Nc1nc2[nH]nnc2c(=O)[nH]1` [Azaguanine-8] was tested, and the ThS net change [2] was 377.

In the case of `O=C(CCCN1CCN(c2ccccn2)CC1)c1ccc(F)cc1` [Azaperone], the ThS net change [3] is reported as 419.

`CCCC1C(=O)N2C(N(C)C)=Nc3ccc(C)cc3N2C1=O` (centres unmarked) [Azapropazone] was tested, and the ThS net change [3] was 429.

`CN1CCC(=C2c3ccccc3CCc3cccnc32)CC1` [Azatadine maleate] gave a ThS net change [3] of 417.

Compound `Cn1cnc([N+](=O)[O-])c1Sc1ncnc2nc[nH]c12` [Azathioprine] has a ThS net change [2] of 367.

`CN1CCCC(n2nc(Cc3ccc(Cl)cc3)c3ccccc3c2=O)CC1` (centres unmarked) [Azelastine HCl] was tested, and the “PTAI>3SD” value (flag: p-tau aggregation inhibitor, ThS net change more than 3 SD from mean) was “*” and the ThS net change [4] was 0.

For `CC[C@H]1OC(=O)[C@H](C)[C@@H](O[C@H]2C[C@@](C)(OC)[C@@H](O)[C@H](C)O2)[C@H](C)[C@@H](O[C@@H]2O[C@H](C)C[C@H](N(C)C)[C@H]2O)[C@](C)(O)C[C@@H](C)CN(C)[C@H](C)[C@@H](O)[C@]1(C)O` [Azithromycin], the ThS net change [3] was 467.

Compound `CC1(C)S[C@@H]2[C@H](NC(=O)[C@H](NC(=O)N3CCNC3=O)c3ccccc3)C(=O)N2[C@H]1C(=O)O` [Azlocillin sodium salt] has a ThS net change [1] of 396.

For `C[C@H]1[C@H](NC(=O)/C(=N\OC(C)(C)C(=O)O)c2csc(N)n2)C(=O)N1S(=O)(=O)O` [Aztreonam], the ThS net change [1] was 386.

`CCOC(=O)OC(C)OC(=O)[C@@H]1N2C(=O)[C@@H](NC(=O)[C@H](N)c3ccccc3)[C@H]2SC1(C)C` (some centres unmarked) [Bacampicillin hydrochloride] was tested, and the ThS net change [2] was 371.

In the case of `CCC(C)C(N)C1=NC(C(=O)N[C@@H](CC(C)C)C(=O)N[C@H](CCC(=O)O)C(=O)N[C@H](C(=O)N[C@H]2CCCCNC(=O)[C@H](CC(N)=O)NC(=O)[C@@H](CC(=O)O)NC(=O)[C@H](Cc3cnc[nH]3)NC(=O)[C@@H](Cc3ccccc3)NC(=O)[C@H]([C@@H](C)CC)NC(=O)[C@@H](CCCN)NC2=O)[C@@H](C)CC)CS1` (some centres unmarked) [Bacitracin] (X2-L[dE]IK[dOrn]I[dF]H[dD]N; lactam 4-C), the ThS net change [3] is reported as 479.

Work on `O=C([O-])CCNC(=O)c1ccc(/N=N/c2ccc(O)c(C(=O)[O-])c2)cc1.[Na+].[Na+]` [Balsalazide Sodium] yielded a ThS net change [1] of 399.

Work on `CN(C)C(=O)Oc1cc(OC(=O)N(C)C)cc(C(O)CNC(C)(C)C)c1.Cl` (centres unmarked) [Bambuterol hydrochloride] yielded a ThS net change [2] of 336.

`CCC(=O)OCC(=O)[C@@]1(OC(=O)CC)[C@@H](C)C[C@H]2[C@@H]3CCC4=CC(=O)C=C[C@]4(C)[C@@]3(Cl)[C@@H](O)C[C@@]21C` [Beclomethasone dipropionate] showed a ThS net change [2] of 354.

For `CCC1(C)CC(=O)NC(=O)C1` [Bemegride], the ThS net change was 431.

In the case of `CCOC(=O)[C@H](CCc1ccccc1)N[C@H]1CCc2ccccc2N(CC(=O)O)C1=O` [Benazepril HCl], the ThS net change [1] is reported as 382.

`NS(=O)(=O)c1cc2c(cc1C(F)(F)F)NC(Cc1ccccc1)NS2(=O)=O` (centres unmarked) [Bendroflumethiazide] gave a ThS net change [2] of 357.

`CC(Cc1cccc(C(F)(F)F)c1)NCCOC(=O)c1ccccc1` (centres unmarked) [Benfluorex] showed a ThS net change [2] of 375.

`C/C(=C(\CCOP(=O)(O)O)SC(=O)c1ccccc1)N(C=O)Cc1cnc(C)nc1N` [Benfotiamine] showed a ThS net change [2] of 375.

With `CCCCOc1cc(C(=O)OCCN(CC)CC)ccc1N` [Benoxinate hydrochloride] the ThS net change [4] was 312.

`O=C(CCCN1CCC(n2c(O)nc3ccccc32)CC1)c1ccc(F)cc1` [Benperidol] showed a ThS net change [3] of 416.

For `NC(CO)C(=O)NNCc1ccc(O)c(O)c1O` (centres unmarked) [Benserazide hydrochloride], the ThS net change [2] was 372.

`NC(=NCc1ccccc1)NC(=O)c1nc(Cl)c(N)nc1N` [Benzamil hydrochloride] showed a ThS net change [5] of 379.

`CC1(C)S[C@@H]2[C@H](NC(=O)Cc3ccccc3)C(=O)N2[C@H]1C(=O)O.CC1(C)S[C@@H]2[C@H](NC(=O)Cc3ccccc3)C(=O)N2[C@H]1C(=O)O.c1ccc(CNCCNCc2ccccc2)cc1` [Benzathine benzylpenicillin] gave a ThS net change [3] of 455.

For `CCc1oc2ccccc2c1C(=O)c1cc(Br)c(O)c(Br)c1` [Benzbromarone], the ThS net change [3] was 498.

`CC(C)(C)CC(C)(C)c1ccc(OCCOCC[N+](C)(C)Cc2ccccc2)cc1` [Benzethonium chloride] was tested, and the ThS net change [6] was 365.

In the case of `CCOC(=O)c1ccc(N)cc1` [Benzocaine], the ThS net change [1] is reported as 379.

Compound `CCCCNc1ccc(C(=O)OCCOCCOCCOCCOCCOCCOCCOCCOCCOC)cc1` [Benzonatate] has a ThS net change [1] of 398.

`O=C(Oc1cccc2cccnc12)c1ccccc1` [Benzoxiquine] showed a ThS net change of 287.

With `NS(=O)(=O)c1cc2c(cc1Cl)N=C(CSCc1ccccc1)NS2(=O)=O` [Benzthiazide] the ThS net change [1] was 399.

Compound `CN1[C@@H]2CC[C@H]1C[C@@H](OC(c1ccccc1)c1ccccc1)C2` [Benztropine mesylate] has a ThS net change [3] of 419.

With `CN(C)CCCOc1nn(Cc2ccccc2)c2ccccc12` [Benzydamine hydrochloride] the ThS net change [4] was 310.

`CC1(C)S[C@@H]2[C@H](NC(=O)Cc3ccccc3)C(=O)N2[C@H]1C(=O)O` [Benzylpenicillin sodium] gave a ThS net change [1] of 398.

Compound `C[N+](C)(CCOc1ccccc1)Cc1ccccc1.O=C([O-])c1cc2ccccc2cc1O` [Bephenium hydroxynaphthoate] has a ThS net change [2] of 370.

Compound `CC(C)COCC(CN(Cc1ccccc1)c1ccccc1)N1CCCC1` (centres unmarked) [Bepridil hydrochloride] has a ThS net change [3] of 418.

`Cl.N[C@@H]1CCCCN(c2c(F)cc3c(=O)c(C(=O)O)cn(C4CC4)c3c2Cl)C1` [Besifloxacin hydrochloride] gave a ThS net change [2] of 360.

For `CNCCc1ccccn1.CS(=O)(=O)O.CS(=O)(=O)O` [Betahistine mesylate], the ThS net change [1] was 378.

Work on `C[C@H]1C[C@H]2[C@@H]3CCC4=CC(=O)C=C[C@]4(C)[C@@]3(F)[C@@H](O)C[C@]2(C)[C@@]1(O)C(=O)CO` [Betamethasone] yielded a ThS net change [1] of 395.

`CC(C)NCC(O)COc1ccc(CCOCC2CC2)cc1` (centres unmarked) [Betaxolol hydrochloride] was tested, and the ThS net change [2] was 373.

With `NCCc1cc[nH]n1` [Betazole hydrochloride] the ThS net change [2] was 333.

Compound `CC(C[N+](C)(C)C)OC(N)=O` (centres unmarked) [Bethanechol chloride] has a ThS net change [3] of 418.

Work on `CC(C)(Oc1ccc(CCNC(=O)c2ccc(Cl)cc2)cc1)C(=O)O` [Bezafibrate] yielded a ThS net change [1] of 389.

In the case of `CC(O)(CS(=O)(=O)c1ccc(F)cc1)C(=O)Nc1ccc(C#N)c(C(F)(F)F)c1` (centres unmarked) [Bicalutamide], the ThS net change [1] is reported as 388.

In the case of `c1ccc(-c2ccc(C(c3ccccc3)n3ccnc3)cc2)cc1` (centres unmarked) [Bifonazole], the ThS net change [3] is reported as 432.

Compound `O=C(O)CCCC[C@@H]1SC[C@@H]2NC(=O)N[C@@H]21` [Biotin] has a ThS net change [5] of 380.

`OC(CCN1CCCCC1)(c1ccccc1)C1CC2C=CC1C2` (centres unmarked) [Biperiden hydrochloride] was tested, and the ThS net change [1] was 380.

`CC(=O)Oc1ccc(C(c2ccc(OC(C)=O)cc2)c2ccccn2)cc1` [Bisacodyl] showed a ThS net change [1] of 398.

For `CC(C)NCC(O)COc1ccc(COCCOC(C)C)cc1` (centres unmarked) [Bisoprolol fumarate], the ThS net change [1] was 409.

`COc1ccccc1Oc1c(NS(=O)(=O)c2ccc(C(C)(C)C)cc2)nc(-c2ncccn2)nc1OCCO` [Bosentan] was tested, and the ThS net change [3] was 453.

`CC[N+](C)(C)Cc1ccccc1Br` [Bretylium tosylate] gave a ThS net change [3] of 431.

In the case of `Brc1c(NC2=NCCN2)ccc2nccnc12.O=C(O)C(O)C(O)C(=O)O` [Brimondine L-Tartrate], the ThS net change is reported as 418.

Compound `CCN[C@H]1CN(CCCOC)S(=O)(=O)c2sc(S(N)(=O)=O)cc21` [Brinzolamide] has a ThS net change [2] of 348.

`CN(Cc1cc(Br)cc(Br)c1N)C1CCCCC1` [Bromhexine hydrochloride] gave a ThS net change [3] of 545.

Compound `CC(C)C[C@H]1C(=O)N2CCC[C@H]2[C@]2(O)O[C@](NC(=O)[C@@H]3C=C4c5cccc6[nH]c(Br)c(c56)C[C@H]4N(C)C3)(C(C)C)C(=O)N12.CS(=O)(=O)O` [Bromocryptine mesylate] has a ThS net change of 296.

For `CCN(CC)CCNC(=O)c1cc(Br)c(N)cc1OC` [Bromopride], the ThS net change [2] was 373.

For `O=C(CCCN1CCC(O)(c2ccc(Br)cc2)CC1)c1ccc(F)cc1` [Bromperidol], the ThS net change [2] was 337.

Compound `CN(C)CCC(c1ccc(Br)cc1)c1ccccn1` (centres unmarked) [Brompheniramine maleate] has a ThS net change [1] of 379.

`CCCC1O[C@@H]2C[C@H]3[C@@H]4CCC5=CC(=O)C=C[C@]5(C)[C@H]4[C@@H](O)C[C@]3(C)[C@]2(C(=O)CO)O1` (some centres unmarked) [Budesonide] showed a ThS net change [1] of 389.

`CCCCOc1ccc(CC(=O)NO)cc1` [Bufexamac] was tested, and the “PTAI>2SD” value (flag: p-tau aggregation inhibitor, ThS net change more than 2 SD from mean) was “*” and the ThS net change [4] was 140.

`COc1cc(OC)c(C(=O)CCCN2CCCC2)c(OC)c1.Cl` [Buflomedil hydrochloride] showed a ThS net change [2] of 363.

In the case of `CCCCNc1cc(C(=O)O)cc(S(N)(=O)=O)c1Oc1ccccc1` [Bumetanide], the ThS net change [1] is reported as 408.

`CCCCN1CCCCC1C(=O)Nc1c(C)cccc1C` (centres unmarked) [Bupivacaine hydrochloride] was tested, and the ThS net change [2] was 364.

Work on `CC(NC(C)(C)C)C(=O)c1cccc(Cl)c1` (centres unmarked) [Bupropion hydrochloride] yielded a ThS net change [4] of 278.

In the case of `O=C1CC2(CCCC2)CC(=O)N1CCCCN1CCN(c2ncccn2)CC1` [Buspirone hydrochloride], the ThS net change [3] is reported as 445.

`CS(=O)(=O)OCCCCOS(C)(=O)=O` [Busulfan] gave a ThS net change [4] of 324.

Compound `CCCCN(CCCC)CCCOC(=O)c1ccc(N)cc1` [Butacaine] has a ThS net change [2] of 367.

Work on `C=CCC1(CC(C)C)C(=O)NC(=O)NC1=O` [Butalbital] yielded a ThS net change [6] of 374.

With `CCCCOC(=O)c1ccc(N)cc1` [Butamben] the ThS net change [1] was 387.

`CN(Cc1ccc(C(C)(C)C)cc1)Cc1cccc2ccccc12` [Butenafine Hydrochloride] gave a ThS net change [3] of 436.

`Clc1ccc(CCC(Cn2ccnc2)Sc2c(Cl)cccc2Cl)cc1` (centres unmarked) [Butoconazole nitrate] gave a ThS net change of 237.

`CCCCOC(=O)c1ccc(O)cc1` [Butylparaben] showed a ThS net change [5] of 396.
